System: US (RNA, single strand) UUUUUACCUAUCUCUUUUUCUCU
Assay: SPR
Details: 250 mM NaCl; 20 mM HEPES pH 7.5, 2% DMSO, 0.1% Tween20, 37 °C; trace shown at 40 nM compound

With `Cc1nc2nc(CN)nn2c(C)c1CCC(=O)Nc1ccc(F)c(Cl)c1` the binding was “no”.

Source: article PMC7612645 (2021)
